The source of these data is US20050153932A1, “Controlled muscle relaxation” (priority 2003, published 2005).

Assay [1] relates to neuromuscular block in a patient. Particulars: endotracheal intubation; cited from earlier work.
Assay [2] concerns M. adductor pollicis contractions. In words: Vecuronium-induced block of M. adductor pollicis contractions (TOF stimulation) and effect of Org 25969 in anaesthetised Rhesus monkeys. The format is in vivo, Rhesus monkey. Particulars: for 0.50-0.90 TOF ratio interval / 25-75% recovery index / time to 25% recovery of T1 / time to 90% recovery of T1 / time to TOF ratio 0.90: spontaneous recovery. The protocol: • T1: first twitch: amplitude of the first response to TOF stimulation, expressed as percentage of control T1 (%). • T4/T1 ratio: the ratio of T4 over T1 (within one TOF stimulus) expressed as decimals.
Female Rhesus monkeys were starved overnight and sedated with 10 mg·kg^−1 ketamine i.m., followed by i.v. injection of 25 mg·kg^−1 pentobarbitone sodium and subsequent infusion of 5-10 mg·kg^−1hr^−1. The animals were intubated and ventilated with a mixture of oxygen and nitrous oxide (2:3), using a ventilator. The expired CO2 level was measured using a capnograph. The tidal volume was adjusted to obtain a CO2 level of approximately 4.5%. Oxygen saturation was measured via a probe on the earlobe using a pulse oxymeter. Blood pressure was measured non-invasively with a cuff placed on the tail. The ECG was recorded and heart rate was measured. Rectal temperature was measured and body temperature was kept at 37-38° C. using a heating blanket. The right hand and right arm of the animal were fixed to a frame using surgical tape. The thumb was connected to a force transducer. A pre-load of 200-500 mN was applied. Two needle electrode were placed near the N. ulnaris and the nerve was stimulated with train-of-four pulses (pulse duration: 2 ms, train-frequency: 0.07 Hz). At the end of the experiment, the animals were allowed to recover from anesthesia. Appropriate recovery care was given to all animals. Two groups of monkeys were used to assess the reversal effects of Org 25969 against the neuromuscular blocking agents rocuronium (Esmeron®/Zemuron®) and vecuronium (Norcuron®). In the first group, animals initially received an intravenous bolus injection of a 1×ED90 dose of rocuronium bromide to induce neuromuscular block, followed by spontaneous recovery of the twitches. After complete recovery of the twitches, each group received a second and larger 5×ED90 dose of rocuronium followed by spontaneous recovery in one subgroup, whereas the other subgroup received an intravenous bolus dose of 1150 nmol·kg^−1 Org 25969 as soon as all twitches had disappeared. In the vecuronium groups of animals, the same protocol was used, but rocuronium was replaced by vecuronium. Rocuronium bromide and vecuronium bromide were dissolved in a citric acid/phosphate/mannitol buffer (pH 4.0). Org 25969 was dissolved in saline.

Setting [3] is: 5× ED90 vecuronium, spontaneous recovery subgroup.

With `C[N+](C)(C)CCOC(=O)CCC(=O)OCC[N+](C)(C)C` [suxamethonium], in assay [1], the duration of action is 5 to 8 min and the onset was roughly 1 min.
Turning to `CC(=O)O[C@H]1C[C@@H]2CC[C@@H]3[C@H](CC[C@@]4(C)[C@H]3C[C@H]([N+]3(C)CCCCC3)[C@@H]4OC(C)=O)[C@@]2(C)C[C@@H]1N1CCCCC1` [vecuronium, vecuronium bromide], in assay [2] (1× ED90 vecuronium), the onset time was 4.3 ± 0.6 min, the “0.50-0.90 TOF ratio interval” value was found to be 4.9 ± 0.5 min, the 25-75% recovery index stood at 5.4 ± 0.8 min and the “time to 25% recovery of T1” value is listed as 8.6 ± 1.0 min. Further, in assay [2] (1× ED90 vecuronium), the “time to 90% recovery of T1” value amounted to 18.1 ± 1.9 min and the “time to TOF ratio 0.90” value amounted to 17.2 ± 1.6 min. Also, the block in assay [2] (1× ED90 vecuronium, Mean ± SEM, n = 4) came to 91.5 ± 1.7%. Also, in assay [2] (5× ED90 vecuronium), the “0.50-0.90 TOF ratio interval” value was found to be 11.8 ± 1.3 min, the 25-75% recovery index was determined as 9.6 ± 2.0 min, the “time to 25% recovery of T1” value came to 28.6 ± 2.8 min and the “time to 90% recovery of T1” value is listed as 44.0 ± 4.6 min. The “time to TOF ratio 0.90” value in assay [2] (5× ED90 vecuronium) amounted to 49.0 ± 4.7 min. Besides, in assay [2] (setting [3]), the block is given as 100.0 ± 0.0% and the onset time is recorded as 1.0 ± 0.1 min.
